Reference: patent US6908922B2, “Linear cyclic ureas” (Les Laboratoires Servier, priority 1999, dated 2005)

Columns and labels:
Format in all cases: cell-based
[1] = test system: aortic rings of New Zealand rabbits; test: Protective vascular effects with respect to endothelial dysfunction caused by a system generating O2^− (XO-Hypo), aortic rings; details: compound at 3×10^−8M; rabbit aortic rings; XO 3 mU/ml, Hypo 10^−4M
[2] = test system: thoracic aorta rings of a Wistar rat; test: Vascular protective effects with respect to endothelial dysfunction caused by an inhibitor of NOS (ACh relaxation of aortic rings in presence of LNA); details: LNA 3×10^−7M, difference in maximum ACh relaxation with/without product
Protocol: Under standard in vitro conditions, relaxation of aortic rings caused by acetylcholine (ACh), which relaxation is entirely dependent on the presence of endothelium, is the reflection of the production of NO (stimulated by ACh), which by diffusing to smooth muscle cells brings about arterial relaxation (Nature, 1980, 288, 373). The compounds of the invention were tested in respect of two models involving two different mechanisms implicated in the endothelial dysfunction observed in pathology: • the first model consists of causing inhibition of the relaxation due to ACh by blocking the enzymatic activity (endothelial NOS) responsible for the production of NO; • the second model consists of causing oxidative stress in vitro using an enzymatic system that generates O2^− (xanthine oxidase—XO and hypoxanthine—Hypo).
The thoracic aorta of a Wistar rat (325-375 g), anaesthetised by the intraperitoneal route using pentobarbital sodium (30 mg/kg), is removed and dissected into rings having a length of 3 mm. Each ring is suspended from an isometric tension sensor connected to a recording system and the initial tension applied is 2.5 g. The physiological solution used, which is thermostatically maintained at 37° C. and oxygenated (95% O2+5% CO2), comprises (in mM): NaCl 112.0; KCl 5.0; CaCl2 2.5; KH2PO4 1.0; MgSO4 1.2; NaHCO3 25.0; glucose 11.5; Ca-EDTA 0.016.
After a 90-minute stabilisation period, the preparations are contracted using phenylephrine (PHE 10^−6M) and relaxed by adding 10^−5M of acetylcholine in order to verify the integrity of the endothelial layer. If that is confirmed, the preparations are rinsed and a concentration of the product under test is added to the medium followed by 3×10^−7M of N^G-nitro-L-arginine (LNA). The preparations are again contracted using phenylephrine and, after 30 minutes, the relaxations due to acetylcholine (ACh-10^−8M to 10^−5M) are assessed in the presence of indomethacin (10^−5M).
The relaxation values are expressed as a percentage relative to the maximum contraction caused by PHE. […]

rat aortic rings = test: Assessment of aortic production of cGMP stimulated by ACh in the presence of LNA (radioimmunoassay); details: compound at 10^−7M, 30-minute incubation; ACh 10^−5M 1 minute; LNA 3×10^−6M; isobutylmethylxanthine 10^−5M
Protocol: By diffusing to the smooth muscle cells, the NO produced by the endothelial cells activates soluble guanylate cyclase, which brings about an increase in cyclic GMP, which is responsible for relaxation.
The rat aortic rings are prepared as previously. The effects of 30-minute incubation of compounds of the invention at different concentrations are assessed on the production of cGMP stimulated by ACh (10^−5M-1 minute) in the presence of LNA (3×10^−6M). The said experiments are carried out in the presence of isobutylmethylxanthine (10^−5M) in order to avoid degradation of the cGMP by phosphodiesterases. The rings are frozen in liquid nitrogen and maintained at −80° C. until the assay is carried out. The cGMP content is assessed by radioimmunoassay and expressed in relation to the amount of proteins contained in the tissue (assay by the Bradford method).

## O=C(NCCN1CCC(COc2ccccc2)CC1)N1CCc2ccccc21 [Example 35, N-{2-[4-(Phenoxymethyl)-1-piperidyl]ethyl}-1-indolinecarboxamide]
[1]
  inhibition of the endothelial dysfunction caused by the XO-Hypo combination: 17%
[2]; compound at 3×10^−8M
  inhibition of the endothelial dysfunction caused by LNA: 26%
[2]; compound at 10^−7M
  inhibition of the endothelial dysfunction caused by LNA: 29%
[2]; compound at 10^−8M
  inhibition of the endothelial dysfunction caused by LNA: 8%
Rat aortic rings
  increase in the production of cGMP stimulated by ACh in the presence of LNA: 28.1%
